Patent US20230293535A1, “ERBB/BTK INHIBITORS” (Dizal (Jiangsu) Pharmaceutical Co., Ltd., priority 2018, published 2023)
Like-named read-outs stand apart in the source and are kept apart here.

What was measured:
TMD-8 cells = assay: BTK (wt) cell proliferation, TMD-8 (CellTiter-Glo, 72 h); format: cell-based; settings: TMD-8 cells, 72 h, CellTiter-Glo, read-out: BTK WT TMD-8 GI50;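 note: viable cells quantified by ATP-based luminescence, proliferation expressed as percent of DMSO control after subtracting a time-zero baseline plate read at dosing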
[1] = test system: NCI-H1975 EGFR L858R/T790M cells; assay: Cell proliferation, NCI-H1975 EGFR L858R/T790M (CellTiter-Glo, 72 h); format: cell-based; settings: Homo sapiens, NCI-H1975, 72 h, NCI-H1975, 72 h proliferation; read-out: EGFR L858R and T790M mutation GI50;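 note: viable cells quantified by luciferase-based ATP luminescence, proliferation expressed relative to DMSO-treated wells (100%) after subtracting a parallel plate read at the time of dosing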
EGFR L858R&T790M = biological target: T1, EGFR L858R&T790M (Homo sapiens, UniProt P00533, L858R/T790M); assay: EGFR L858R and T790M cellular phosphorylation inhibition in NCI-H1975 (MSD); format: cell-based; settings: NCI-H1975 cells, 4 h compound, p-EGFR(Y1068)/total EGFR; read-out: EGFR L858R and T790M mutation IC50;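 note: phosphorylated and total EGFR detected by electrochemiluminescence, cells exposed to compound in medium containing 1% FBS at 37 °C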
T1 construct: host or cells: NCI-H1975
T1 sequence (P00533 25-1210 T790M/L858R): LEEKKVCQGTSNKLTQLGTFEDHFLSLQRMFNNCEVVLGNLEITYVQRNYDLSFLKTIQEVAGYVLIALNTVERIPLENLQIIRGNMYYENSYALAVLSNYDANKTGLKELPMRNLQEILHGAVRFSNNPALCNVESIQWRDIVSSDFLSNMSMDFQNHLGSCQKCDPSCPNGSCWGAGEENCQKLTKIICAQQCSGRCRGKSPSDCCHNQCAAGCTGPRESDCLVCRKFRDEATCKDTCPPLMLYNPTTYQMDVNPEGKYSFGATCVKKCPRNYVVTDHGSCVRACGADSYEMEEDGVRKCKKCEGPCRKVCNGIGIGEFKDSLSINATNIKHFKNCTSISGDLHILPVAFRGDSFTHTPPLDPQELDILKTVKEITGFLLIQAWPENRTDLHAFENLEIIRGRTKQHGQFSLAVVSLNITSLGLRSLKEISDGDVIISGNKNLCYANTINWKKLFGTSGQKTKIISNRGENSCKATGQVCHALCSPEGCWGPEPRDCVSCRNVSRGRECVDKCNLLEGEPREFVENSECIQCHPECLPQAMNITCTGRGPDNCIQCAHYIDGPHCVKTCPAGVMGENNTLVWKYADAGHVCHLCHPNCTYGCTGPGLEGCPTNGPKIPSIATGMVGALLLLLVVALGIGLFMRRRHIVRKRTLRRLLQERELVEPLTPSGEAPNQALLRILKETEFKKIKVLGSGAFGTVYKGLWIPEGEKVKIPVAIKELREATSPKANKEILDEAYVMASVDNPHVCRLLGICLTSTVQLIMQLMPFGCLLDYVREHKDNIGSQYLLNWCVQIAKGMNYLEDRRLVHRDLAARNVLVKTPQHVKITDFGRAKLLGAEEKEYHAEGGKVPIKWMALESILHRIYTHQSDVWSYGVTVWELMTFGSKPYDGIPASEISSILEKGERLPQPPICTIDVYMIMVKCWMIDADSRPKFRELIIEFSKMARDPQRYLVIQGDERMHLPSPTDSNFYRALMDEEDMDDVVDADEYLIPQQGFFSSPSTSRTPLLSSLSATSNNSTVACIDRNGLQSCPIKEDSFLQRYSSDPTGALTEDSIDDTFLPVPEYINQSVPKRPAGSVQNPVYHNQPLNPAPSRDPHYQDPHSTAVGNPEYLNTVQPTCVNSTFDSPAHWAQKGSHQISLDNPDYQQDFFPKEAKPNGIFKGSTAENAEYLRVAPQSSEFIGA
Experimental: (§1) One day before the test, WT or mutant cells were seeded in 96 well plates at appropriate concentrations with corresponding growth media supplemented with 1% FBS, and incubated overnight. The next day, tested compounds at a series of concentrations were added into each individual well of the plates, and the plates were incubated for 4 h at 37° C. with 5% CO2.
(§2) The EGFR (Y1068) phosphorylation level (activity) of cells in each well were then measured with MSD kit named “MULTI-SPOT®96 4-Spot HB Prototype EGFR Triplex [sequence]: pEGFR(Tyr1068),pEGFR(Tyr1173), Total EGFR” according to the manufacturer’s instruction (MESO SCALE DISCOVERY, Cat# N45ZB-1). The assay is an electrochemiluminescent method for determining both phosphorylated and total EGFR of cells with an MSD SECTOR® Imager and the ratio of p-EGFR/total EGFR can be generated by the machine. The Her2 (Y1248) phosphorylation level (activity) of cells in each well were measured with MSD Kit named “Phospho-ErbB2 (Tyr1248) Assay Whole Cell Lysate Kit” according to the manufacturer’s instruction (MESO SCALE DISCOVERY, Cat# K151CLD-3). The assay is an electrochemiluminescent method (MESO SCALE DISCOVERY) for determining both phosphorylated and total Her2 of cells with an MSD SECTOR® Imager and then the ratio of p-Her2/total Her2 can be generated by the machine.

DB cells = assay: BTK (wt) cell proliferation, DB (CellTiter-Glo, 72 h); format: cell-based; settings: Homo sapiens, DB, DB cells, CellTiter-Glo, read-out: Non-BCR activated DB GI50;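 note: DB cells in 384-well plates given a dilution series of compound, viable cells read by ATP luminescence, growth expressed versus DMSO control after subtracting a time-zero plate reading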
OCI-LY-10 cells = assay: BTK (wt) cell proliferation, OCI-LY-10 (CellTiter-Glo, 72 h); format: cell-based; settings: OCI-LY-10 cells, 72 h, CellTiter-Glo, read-out: BTK WT OCI-LY-10 GI50;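 note: viable cells quantified via cellular ATP luminescence, proliferation given as percent of DMSO control after subtracting a duplicate plate read at time of dosing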
[2] = biological target: T2, human EGFR exon 20 H773_V774insNPH (Homo sapiens, UniProt P00533, INS773NPH); assay: EGFR Exon20 NPH insertion cellular phosphorylation inhibition (MSD pEGFR Y1068/total EGFR); format: cell-based; settings: Ba/F3 EGFR NPH ins cells, 4 h compound, p-EGFR(Y1068)/total EGFR;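 note: IL3-independent Ba/F3 cells with constitutively phosphorylated EGFR, compound exposure at 37 °C under 5% CO2, electrochemiluminescent MSD measurement of the p-EGFR to total EGFR ratio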
T2 construct: host or cells: Ba/F3
T2 sequence (P00533 with tags, fused parts or gaps INS773NPH): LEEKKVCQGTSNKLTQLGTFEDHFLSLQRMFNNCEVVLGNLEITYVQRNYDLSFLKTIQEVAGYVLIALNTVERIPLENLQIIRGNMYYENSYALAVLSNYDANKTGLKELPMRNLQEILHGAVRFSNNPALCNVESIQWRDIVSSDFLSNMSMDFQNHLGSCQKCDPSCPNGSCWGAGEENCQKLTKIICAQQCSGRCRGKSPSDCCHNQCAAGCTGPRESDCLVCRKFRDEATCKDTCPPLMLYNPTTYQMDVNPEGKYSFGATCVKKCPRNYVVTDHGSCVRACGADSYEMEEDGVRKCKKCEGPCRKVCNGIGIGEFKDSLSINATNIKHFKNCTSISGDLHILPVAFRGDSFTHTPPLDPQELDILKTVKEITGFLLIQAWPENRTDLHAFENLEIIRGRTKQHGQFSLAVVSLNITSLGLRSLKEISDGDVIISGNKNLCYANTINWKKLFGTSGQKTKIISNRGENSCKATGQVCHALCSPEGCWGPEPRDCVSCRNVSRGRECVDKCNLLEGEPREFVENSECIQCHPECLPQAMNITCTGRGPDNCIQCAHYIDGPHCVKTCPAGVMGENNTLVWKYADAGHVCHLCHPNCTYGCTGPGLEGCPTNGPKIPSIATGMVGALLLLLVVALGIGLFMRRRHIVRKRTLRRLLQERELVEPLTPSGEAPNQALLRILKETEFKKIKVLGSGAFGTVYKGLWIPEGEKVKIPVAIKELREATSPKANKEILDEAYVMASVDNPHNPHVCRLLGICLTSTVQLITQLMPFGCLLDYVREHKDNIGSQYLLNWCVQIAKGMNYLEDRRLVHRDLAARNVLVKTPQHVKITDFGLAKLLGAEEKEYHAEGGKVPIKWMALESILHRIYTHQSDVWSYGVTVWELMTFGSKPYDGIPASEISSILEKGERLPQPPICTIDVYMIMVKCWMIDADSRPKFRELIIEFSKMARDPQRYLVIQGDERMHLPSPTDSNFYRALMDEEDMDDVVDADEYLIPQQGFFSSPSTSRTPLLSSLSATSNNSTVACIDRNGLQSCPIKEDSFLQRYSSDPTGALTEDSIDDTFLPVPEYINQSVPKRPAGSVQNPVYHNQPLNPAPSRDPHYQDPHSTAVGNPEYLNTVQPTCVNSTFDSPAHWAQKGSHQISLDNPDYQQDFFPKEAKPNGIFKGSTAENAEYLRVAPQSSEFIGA

[3] = biological target: T3, human EGFR exon 20 V769_D770insASV (Homo sapiens, UniProt P00533, INS769ASV); assay: EGFR Exon20 ASV insertion cellular phosphorylation inhibition (MSD pEGFR Y1068/total EGFR); format: cell-based; settings: Ba/F3 EGFR ASV ins cells, 4 h compound, p-EGFR(Y1068)/total EGFR;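 note: electrochemiluminescent readout on an MSD SECTOR Imager, IL3-independent transduced cells in medium with 1% FBS, compound concentration series at 37 °C and 5% CO2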
T3 construct: expressed in transfected cells; host or cells: Ba/F3 (DSMZ ACC-300), lentiviral transduction, puromycin selection, IL3 depletion

WT EGFR = biological target: T4, WT EGFR (Homo sapiens, UniProt P00533); assay: WT EGFR cellular phosphorylation inhibition in A-431 (hEGF stimulated, MSD); format: cell-based; settings: A431 cells, 4 h compound, then 100 ng/ml hEGF 10 min;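 note: electrochemiluminescence read-out of EGFR Tyr1068 phosphorylation expressed as ratio to total EGFR, cells kept in medium with 1% FBS, compounds tested as a concentration series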
T4 construct: host or cells: A-431
T4 sequence (P00533 25-1210): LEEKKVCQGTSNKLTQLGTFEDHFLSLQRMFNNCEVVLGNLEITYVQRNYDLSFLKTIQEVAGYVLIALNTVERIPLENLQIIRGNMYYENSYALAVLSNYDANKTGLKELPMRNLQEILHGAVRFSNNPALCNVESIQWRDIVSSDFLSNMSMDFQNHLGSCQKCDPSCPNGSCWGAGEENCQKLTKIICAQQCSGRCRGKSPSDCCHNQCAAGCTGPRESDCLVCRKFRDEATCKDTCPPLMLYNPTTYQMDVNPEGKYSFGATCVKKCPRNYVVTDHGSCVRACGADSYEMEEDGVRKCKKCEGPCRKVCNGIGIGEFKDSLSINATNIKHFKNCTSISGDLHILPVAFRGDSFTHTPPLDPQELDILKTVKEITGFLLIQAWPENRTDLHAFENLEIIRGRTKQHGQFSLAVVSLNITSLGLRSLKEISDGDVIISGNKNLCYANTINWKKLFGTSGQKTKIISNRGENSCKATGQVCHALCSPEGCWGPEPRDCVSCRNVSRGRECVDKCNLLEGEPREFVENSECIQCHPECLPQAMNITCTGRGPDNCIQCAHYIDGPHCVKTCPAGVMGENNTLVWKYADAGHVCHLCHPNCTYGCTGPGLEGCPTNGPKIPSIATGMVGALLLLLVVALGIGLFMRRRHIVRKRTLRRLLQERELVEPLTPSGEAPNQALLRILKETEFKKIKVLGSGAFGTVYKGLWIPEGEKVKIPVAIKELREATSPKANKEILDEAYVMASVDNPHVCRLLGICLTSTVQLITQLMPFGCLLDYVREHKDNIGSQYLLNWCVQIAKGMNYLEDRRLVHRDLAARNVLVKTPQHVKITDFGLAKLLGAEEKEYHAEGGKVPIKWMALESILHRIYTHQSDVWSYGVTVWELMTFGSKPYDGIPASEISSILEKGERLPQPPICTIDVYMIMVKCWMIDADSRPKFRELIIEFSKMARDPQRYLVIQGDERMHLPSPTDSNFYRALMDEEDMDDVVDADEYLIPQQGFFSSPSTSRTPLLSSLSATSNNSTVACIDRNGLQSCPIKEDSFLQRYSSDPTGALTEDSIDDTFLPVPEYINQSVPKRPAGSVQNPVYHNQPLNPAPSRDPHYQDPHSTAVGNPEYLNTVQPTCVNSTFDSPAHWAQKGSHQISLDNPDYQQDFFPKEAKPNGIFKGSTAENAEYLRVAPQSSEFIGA

Ri-1 cells = assay: BTK (wt) cell proliferation, Ri-1 (CellTiter-Glo, 72 h); format: cell-based; settings: Ri-1 cells, 72 h, CellTiter-Glo, read-out: BTK WT Ri-1 GI50;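 note: viable cells quantified as cellular ATP luminescence, proliferation normalized to a time-zero plate and the DMSO control, compounds tested across a dilution series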
Experimental: OCI-LY-10 at 3,750 cells/well, TMD-8 and Ri-1 at 2,000 cells/well, and DB at 1,250 cells/well, respectively, were sorted into 384-well plates in RPMI1640 medium with 10% FBS. After overnight incubation, all cells were incubated with compound at a series of concentrations. Meanwhile, a duplicated plate of each cell line was prepared for measuring G0 value. The dosed plates were further incubated for 72 hours and the number of viable cells was measured by CellTiter-Glo® Luminescent Cell Viability Assay (Promega), a luminescent method for determining the number of viable cells through measurement of cellular ATP concentration using Envision plate reader (PerkinElmer). The percentage of proliferation was calculated as: % Proliferation = 100 × (G3 value of sample well - G0 value)/(G3 value of DMSO control - G0 value).

WT EGFR cell line A-431 = assay: Cell proliferation, WT EGFR A431 (CellTiter-Glo, 72 h); format: cell-based; settings: Homo sapiens, A-431, 72 h, A431, 72 h proliferation; read-out: EGFR WT A431 GI50;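 note: proliferation from a luminescent ATP viability signal, expressed as 100 × (treated minus time-zero plate) over (DMSO control minus time-zero plate), cells grown with 10% FBS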
Ba/F3 EGFR NPH ins cells = assay: Cell proliferation, Ba/F3 EGFR NPH ins (CellTiter-Glo, 72 h); format: cell-based; settings: Ba/F3 EGFR, 72 h, Ba/F3 EGFR NPH ins, 72 h proliferation; read-out: EGFR Exon20 NPH insertion GI50;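 note: IL3-independent cells carrying constitutively phosphorylated EGFR, compound dilution series, viable cells quantified by ATP luminescence, growth relative to DMSO wells after subtracting pre-dosing (day 0) baseline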
[4] = In vitro human hepatocytes clearance assay; settings: both, human, cryopreserved human hepatocytes (suspension), human hepatocytes Clint (µL/min/10^6cells), mixed gender human hepatocytes, incubation up to 100 min
[5] = test system: Her2 exon 20 insertion YVMA transduced NIH-3T3 cell line; assay: Cell proliferation, Her2 YVMAins NIH-3T3 (CellTiter-Glo, 72 h); format: cell-based; settings: Mus musculus, NIH3T3, 72 h, Her2 YVMAins cells, 72 h proliferation; read-out: Her2 Exon 20 YVMA insertion GI50;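 note: viable cells quantified by ATP luminescence, growth over a day-zero baseline plate expressed as percent of DMSO control growth, compound dilution series in 10% FBS medium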
Ba/F3 EGFR ASV ins cells = assay: Cell proliferation, Ba/F3 EGFR ASV ins (CellTiter-Glo, 72 h); format: cell-based; settings: Ba/F3 EGFR, 72 h, Ba/F3 EGFR ASV ins, 72 h proliferation; read-out: EGFR Exon20 ASV insertion GI50;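 note: IL3-independent Ba/F3 cells transduced with EGFR V769_D770insASV, cellular ATP luminescence after compound exposure, growth relative to DMSO control with the day-0 baseline reading subtracted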
[6] = biological target: T5, human Her2 exon 20 insertion mutation YVMA (Homo sapiens, UniProt P04626, INS775YVMA); assay: Her2 Exon 20 YVMA insertion cellular phosphorylation inhibition (MSD p-Her2 Y1248/total Her2); format: cell-based; settings: Her2 YVMAins cells, 4 h compound;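 note: lentivirally transduced NIH-3T3 cells in 1% FBS medium, electrochemiluminescent MSD read-out, graded compound concentrations at 37 °C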
T5 construct: expressed in transfected cells; host or cells: NIH-3T3, lentiviral transduction, puromycin selection
T5 sequence (P04626 with tags, fused parts or gaps INS775YVMA): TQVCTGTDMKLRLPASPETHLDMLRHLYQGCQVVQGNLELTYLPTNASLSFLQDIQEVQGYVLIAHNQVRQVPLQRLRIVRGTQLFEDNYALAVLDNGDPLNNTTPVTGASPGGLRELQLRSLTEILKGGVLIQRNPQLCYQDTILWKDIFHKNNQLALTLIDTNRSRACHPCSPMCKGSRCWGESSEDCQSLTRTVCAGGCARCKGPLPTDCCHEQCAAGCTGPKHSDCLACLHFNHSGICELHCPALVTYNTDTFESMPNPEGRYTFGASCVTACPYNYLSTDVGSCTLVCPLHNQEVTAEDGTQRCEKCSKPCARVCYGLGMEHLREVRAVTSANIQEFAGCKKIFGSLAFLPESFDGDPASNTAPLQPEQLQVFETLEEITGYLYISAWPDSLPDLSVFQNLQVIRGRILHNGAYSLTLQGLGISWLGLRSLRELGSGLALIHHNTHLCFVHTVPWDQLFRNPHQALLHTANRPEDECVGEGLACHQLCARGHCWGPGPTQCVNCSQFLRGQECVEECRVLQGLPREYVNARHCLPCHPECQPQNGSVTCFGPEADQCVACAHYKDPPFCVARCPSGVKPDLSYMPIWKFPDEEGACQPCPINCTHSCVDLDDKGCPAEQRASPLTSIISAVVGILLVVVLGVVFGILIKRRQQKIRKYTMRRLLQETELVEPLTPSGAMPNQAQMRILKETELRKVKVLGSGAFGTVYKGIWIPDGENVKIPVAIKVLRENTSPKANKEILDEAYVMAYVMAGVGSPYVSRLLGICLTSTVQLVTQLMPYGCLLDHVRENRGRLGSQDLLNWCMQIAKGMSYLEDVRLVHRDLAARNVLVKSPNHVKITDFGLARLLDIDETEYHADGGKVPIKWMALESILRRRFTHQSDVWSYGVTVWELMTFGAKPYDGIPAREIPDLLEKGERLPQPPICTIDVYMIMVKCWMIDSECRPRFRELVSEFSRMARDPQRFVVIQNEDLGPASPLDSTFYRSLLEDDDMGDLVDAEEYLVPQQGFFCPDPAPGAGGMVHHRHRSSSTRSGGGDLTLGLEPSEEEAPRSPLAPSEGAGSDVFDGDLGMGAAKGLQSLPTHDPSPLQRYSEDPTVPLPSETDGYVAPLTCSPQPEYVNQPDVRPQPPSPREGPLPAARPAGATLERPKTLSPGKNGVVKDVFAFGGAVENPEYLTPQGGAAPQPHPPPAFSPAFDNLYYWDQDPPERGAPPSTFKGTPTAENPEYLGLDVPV
Experimental: The resulting cell line expressed phosphorylated Her2 protein and its proliferation depended on the mutation gene, which could be used for in vitro PD and anti-proliferation assays.
as §1, §2

[7] = In vitro rat hepatocytes clearance assay; settings: male, rat, cryopreserved rat hepatocytes (suspension), rat hepatocytes Clint (µL/min/10^6cells), 1 µM-range incubation up to 100 min

Compound	GI50 [1]	IC50 (EGFR L858R&T790M)	IC50 [2]	IC50 [3]	IC50 (WT EGFR)	GI50 (WT EGFR cell line A-431)	GI50 (Ba/F3 EGFR NPH ins cells)	hepatocyte CLint at 1 µM [4]	GI50 (Ba/F3 EGFR ASV ins cells)	IC50 [6]	hepatocyte CLint at 1 µM [7]	GI50 (OCI-LY-10 cells; Homo sapiens, OCI-Ly10, 72 h)	GI50 (TMD-8 cells; Homo sapiens, TMD8, 72 h)	GI50 (DB cells)	GI50 (OCI-LY-10 cells)	GI50 (Ri-1 cells)	GI50 [5]	GI50 (Ri-1 cells; Ri-1, 72 h)	GI50 (TMD-8 cells)
C=CC(=O)Nc1cc(Nc2ncnc(Nc3cc(Cl)c(F)cc3C(C)(O)CC)n2)c(OC)cc1N1CC[C@@H](N(C)C)C1 (single isomer, unassigned) [Compound 69, N-(5-(4-(5-chloro-4-fluoro-2-((R)-2-hydroxybutan-2-yl)phenylamino)-1,3,5-triazin-2-ylamino)-2-((R)-3-(dimethylamino)pyrrolidin-1-yl)-4-methoxyphenyl)acrylamide or N-(5-(4-(5-chloro-4-fluoro-2-((S)-2-hydroxybutan-2-yl)phenylamino)-1,3,5-triazin-2-ylamino)-2-((R)-3-(dimethylamino)pyrrolidin-1-yl)-4-methoxyphenyl)acrylamide]	0.0055 µM	0.0012 µM	0.0463 µM	0.0202 µM	0.0562 µM	0.0122 µM	0.0581 µM	4.12 µL/min/1e6 cells	0.0701 µM	0.0331 µM	10.7 µL/min/1e6 cells		0.0101 µM	> 3 µM	0.0745 µM	0.0139 µM	0.0891 µM		
[2H]C([2H])([2H])N(CCN(C)c1cc(OC)c(Nc2ncnc(Nc3cc(F)c(Cl)cc3C(C)(C)O)n2)cc1NC(=O)C=C)C([2H])([2H])[2H] [Compound 37, N-(2-((2-(bis(methyl-d3)amino)ethyl)(methyl)amino)-5-((4-((4-chloro-5-fluoro-2-(2-hydroxypropan-2-yl)phenyl)amino)-1,3,5-triazin-2-yl)amino)-4-methoxyphenyl) acrylamide]	0.0015 µM	0.0005 µM	0.0085 µM	0.0081 µM	0.0095 µM	0.0103 µM	0.0229 µM	11.8 µL/min/1e6 cells	0.024 µM	0.0033 µM	67.7 µL/min/1e6 cells	0.0146 µM	0.01 µM	2.98 µM			0.0223 µM	0.0346 µM	
C=CC(=O)Nc1cc(Nc2ncnc(Nc3cc(Cl)c(F)cc3C(C)(C)O)n2)c(OC)cc1N(C)CCN(C)C [Compound 11, N-(5-(4-(5-chloro-4-fluoro-2-(2-hydroxypropan-2-yl)phenylamino)-1,3,5-triazin-2-ylamino)-2-((2-(dimethylamino)ethyl)(methyl)amino)-4-methoxyphenyl)acrylamide]	0.0077 µM	0.0003 µM	0.0097 µM	0.0069 µM	0.0076 µM	0.013 µM	0.0216 µM	7.12 µL/min/1e6 cells	0.0252 µM	0.003 µM	161 µL/min/1e6 cells	0.0028 µM	0.0109 µM	2.79 µM			0.0207 µM	0.026 µM	
C=CC(=O)Nc1cc(Nc2ncnc(Nc3cc(F)c(Cl)cc3C(C)(C)O)n2)c(OC)cc1N1CC[C@@H](N(C)C)C1 [Compound 51, (R)-N-(5-(4-(4-chloro-5-fluoro-2-(2-hydroxypropan-2-yl)phenylamino)-1,3,5-triazin-2-ylamino)-2-(3-(dimethylamino)pyrrolidin-1-yl)-4-methoxyphenyl)acrylamide]	0.0019 µM	0.001 µM	0.0286 µM	0.0161 µM	0.0126 µM	0.0134 µM	0.0529 µM	4.02 µL/min/1e6 cells	0.0354 µM	0.0199 µM	5.97 µL/min/1e6 cells	0.00673 µM	0.00362 µM	> 3 µM			0.105 µM	0.0103 µM	

More lines, main results first:

GI50 [1]	IC50 (EGFR L858R&T790M)	IC50 [2]	IC50 [3]	IC50 (WT EGFR)	GI50 (WT EGFR cell line A-431)	GI50 (Ba/F3 EGFR NPH ins cells)	hepatocyte CLint at 1 µM [4]	GI50 (Ba/F3 EGFR ASV ins cells)	IC50 [6]	hepatocyte CLint at 1 µM [7]	GI50 (OCI-LY-10 cells; Homo sapiens, OCI-Ly10, 72 h)	Compound	GI50 (TMD-8 cells; Homo sapiens, TMD8, 72 h)	GI50 (DB cells)	GI50 (OCI-LY-10 cells)	GI50 (Ri-1 cells)	GI50 [5]	GI50 (Ri-1 cells; Ri-1, 72 h)	GI50 (TMD-8 cells)
0.0033 µM	0.0007 µM	0.0226 µM	0.0086 µM	0.0278 µM	0.008 µM	0.0432 µM	1.1 µL/min/1e6 cells	0.0274 µM	0.0122 µM	6.15 µL/min/1e6 cells	0.0163 µM	C=CC(=O)Nc1cc(Nc2ncnc(Nc3cc(Cl)c(F)cc3C(C)(C)O)n2)c(OC)cc1N1CC[C@@H](NC)C1 [Compound 73, (R)-N-(5-(4-(5-chloro-4-fluoro-2-(2-hydroxypropan-2-yl)phenylamino)-1,3,5-triazin-2-ylamino)-4-methoxy-2-(3-(methylamino)pyrrolidin-1-yl)phenyl) acrylamide]	0.00375 µM	> 3 µM			0.026 µM	0.151 µM	
0.0008 µM	0.0004 µM	0.0135 µM	0.0071 µM	0.0504 µM	0.0178 µM	0.05 µM	1.42 µL/min/1e6 cells	0.0556 µM	0.0021 µM	13.2 µL/min/1e6 cells	0.00704 µM	C=CC(=O)Nc1cc(Nc2nccc(Nc3cc(Cl)c(F)cc3C(C)(C)O)n2)c(OC)cc1N1C[C@@H]2CN(C)C[C@@H]21 [Compound 96, N-(5-(4-(5-chloro-4-fluoro-2-(2-hydroxypropan-2-yl)phenylamino)pyrimidin-2-ylamino)-4-methoxy-2-((1S,5R)-3-methyl-3,6-diazabicyclo[3.2.0]heptan-6-yl)phenyl)acrylamide]	0.0028 µM	2.99 µM			0.05 µM	0.0251 µM	
0.0054 µM	0.0018 µM	0.0279 µM	0.103 µM	0.596 µM	0.0383 µM	0.0859 µM	4.01 µL/min/1e6 cells	0.113 µM	0.0116 µM	13.9 µL/min/1e6 cells		C=CC(=O)Nc1cc(Nc2nccc(Nc3cc(Cl)c(F)cc3C(C)(O)CC)n2)c(OC)cc1N1CC[C@@H](N(C)C)C1 (single isomer, unassigned) [Compound 76, N-(5-(4-(5-chloro-4-fluoro-2-((R)-2-hydroxybutan-2-yl)phenylamino)pyrimidin-2-ylamino)-2-((R)-3-(dimethylamino)pyrrolidin-1-yl)-4-methoxyphenyl) acrylamide or N-(5-(4-(5-chloro-4-fluoro-2-((S)-2-hydroxybutan-2-yl)phenylamino)pyrimidin-2-ylamino)-2-((R)-3-(dimethylamino)pyrrolidin-l-yl)-4-methoxyphenyl) acrylamide]		1.07 µM	0.00293 µM	0.00593 µM	0.0977 µM		0.00844 µM
0.0028 µM	0.0017 µM	0.0315 µM	0.027 µM	0.136 µM	0.0208 µM	0.033 µM	3.89 µL/min/1e6 cells	0.0461 µM	0.0153 µM	17.5 µL/min/1e6 cells	0.0114 µM	C=CC(=O)Nc1cc(Nc2nccc(Nc3cc(Cl)c(Cl)cc3C(C)(C)O)n2)c(OC)cc1N1CC[C@@H](N(C)C)C1 [Compound 68, (R)-N-(5-(4-(4,5-dichloro-2-(2-hydroxypropan-2-yl)phenylamino)pyrimidin-2-ylamino)-2-(3-(dimethylamino)pyrrolidin-1-yl)-4-methoxyphenyl)acrylamide]	0.0036 µM	2.51 µM			0.0967 µM	0.0136 µM	
